The data set can be described thus: Exposure of crystalline form to about 100% room humidity, crystal form monitored by XRD. Type of data set: physicochemical. As to conditions: after exposure to about 100% RH for about 7 days at about room temperature, Form I prepared from ethyl acetate (about 80 mg). The source says: A round aluminum sample holder with zero background was used.

The values that follow come from patent US8207361B2, “Tigecycline crystalline forms and processes for preparation thereof” (Teva Pharmaceutical Industries Ltd., priority 2006, dated 2012).

On to `CN(C)c1cc(NC(=O)CNC(C)(C)C)c(O)c2c1C[C@H]1C[C@H]3[C@H](N(C)C)C(O)=C(C(N)=O)C(=O)[C@@]3(O)C(O)=C1C2=O` [Form I, (4S,4aS,5aR,12aS)-9-(2-(tert-butylamino)acetamido)-4,7-bis(dimethylamino)-1,4,4a,5,5a,6,11,12a-octahydro-3,10,12,12a-tetrahydroxy-1,11-dioxo-2-naphthacenecarboxamide], for which the Crystal form entry is reported as “Amorphous”.
